{"source": "paper PMC6406907", "about": "“A H2AX–CARP-1 Interaction Regulates Apoptosis Signaling Following DNA Damage” (Cancers, 2019)", "tested_on": "caspases-3, -8, -9, and -2", "assay": "Caspase activity, ApoAlert Caspase profiling plate, MDA-MB-468 sublines", "assay_type": "cell-based, human", "conditions": "for caspase-3 activation in EGFP-peptide-expressing cells: MDA-MB-468 sublines vs EGFP vector subline, Figure 7E,F", "source_text": "Our next objective was to analyze the biological significance of the CARP-1–H2AX interaction in cells. For this purpose, we utilized MDA-MB-468 and HeLa cell lines that stably express myc-His-tagged wild-type CARP-1 or CARP-1 (Δ600–650)-myc-His proteins as detailed in Figure S4 (Supplementary Materials). These sublines were then either untreated (Control, DMSO), or treated with Adriamycin or CFM-4 compound. […] Next, we measured activation of caspases as an apoptosis readout in cells expressing myc-His-tagged wild-type CARP-1 or CARP-1 (Δ600–650) proteins that were either untreated or treated with Adriamycin or CFM compounds as detailed in Section 2. We utilized a lower, 4–5 μM dose of Adriamycin or CFM compounds because a 10 μM Adriamycin dose caused interference in signal output/readout in this particular assay, likely due to background fluorescence that is emitted by higher dose of Adriamycin. Although Adriamycin has a maximum excitation and emission wavelength of 470 and 560 nm, respectively, we found significant fluorescence emission in cells treated with 10 μM Adriamycin at a 380-nm excitation wavelength. Moreover, since caspase activation precedes apoptotic cell death, we utilized a lower dose of Adriamycin to permit a robust measurement of optimal caspase activation in cells undergoing moderate apoptosis with lower/minimal interference by Adriamycin-induced fluorescence signals. […] MDA-MB-468 or HeLa cells that express EGFP or EGFP-H2AX (1–35) were separately treated with Adriamycin, and presence of CARP-1 and γH2AX was determined by immuno-cytochemical staining followed by photography by a confocal microscope as described in Section 2. […]\nFigure 7 Disruption of H2AX interaction with CARP-1 results in enhanced viabilities of CFM-4-, CFM-4.16-, or Adriamycin-treated cells in part due to reduced apoptosis. […] The fluorescence released from the activated caspase-dependent cleavage of respective substrate was detected by a plate reader at the excitation and emission wavelengths of 380 nm and 460 nm, respectively, as detailed in Section 2. […]", "note": "No end group written: not given here."}
{"compound": "COc1cccc2c1C(=O)c1c(O)c3c(c(O)c1C2=O)C[C@@](O)(C(=O)CO)C[C@@H]3O[C@H]1C[C@H](N)[C@H](O)[C@H](C)O1", "note": "[Adriamycin, doxorubicin, reference compound]", "values": [{"measurement": "caspase activation in CARP-1 (Δ600–650) cells", "setting": "4–5 μM, CARP-1 (Δ600–650) vs wild-type CARP-1-expressing cells, mean of two experiments, 380/460 nm", "value": "overall reduction in activation of caspases-3, -8, -9, and -2"}]}
{"compound": "EGFP-CARP-1 (636–650): EGFP-tagged fusion protein stably expressed in MDA-MB-468 and HeLa sublines (PKTMKVNDLRKELES; also: EGFP fusion kept, end not given here)", "values": [{"measurement": "caspase-3 activation in EGFP-peptide-expressing cells", "value": "overall reduction in activation of caspase-3"}]}
{"compound": "EGFP-H2AX (1–35): EGFP-tagged fusion protein stably expressed in MDA-MB-468 and HeLa sublines (MSGRGKTGGKARAKAKSRSSRAGLQFPVGRVHRLL; also: EGFP fusion, end not given here; UniProt P16104 1-35, looked up, fragment)", "values": [{"measurement": "caspase-3 activation in EGFP-peptide-expressing cells", "value": "overall reduction in activation of caspase-3"}]}
